According to patent US20230278972A1, “SUBSTITUTED HALOALKYL SULFONANILIDE HERBICIDES” (FMC Corporation, priority 2020, published 2023):

Assays:
Type in all cases: in vivo
[1] = tested on: ragweed (common ragweed, Ambrosia artemisiifolia); assay: Test A preemergence, ragweed; settings: Preemergence; for Ragweed plant response rating: visual injury on 0 to 100 scale (0 no effect, 100 complete control), approximately 10 days; for Plant response rating, Ragweed: 0 to 100 scale (0 no effect, 100 complete control)
Summary of the method: (§1)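 Greenhouse pot test in a loam–sand blend; compounds delivered in a non-phytotoxic solvent carrying a surfactant, applied either as a directed spray to soil at seeding or over seedlings 2 to 10 cm high with one to two leaves.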

[2] = tested on: pigweed (Amaranthus retroflexus); assay: Test A postemergence, pigweed; settings: Postemergence, 0 to 100 scale (0 no effect, 100 complete control); for Pigweed plant response rating: 500 g ai/ha, visual injury vs untreated controls after approx. 10 days
Summary of the method: as §1

[3] = tested on: pigweed (Amaranthus retroflexus); assay: Test A preemergence, pigweed; settings: for Pigweed plant response rating: visual injury on 0 to 100 scale (0 no effect, 100 complete control), approximately 10 days; for Plant response rating, Pigweed: 0 to 100 scale (0 no effect, 100 complete control)
Summary of the method: (§2)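 Barnyardgrass, wheat and galium were treated postemergence at the one- to two-leaf stage (2 to 10 cm) with chemicals formulated in non-phytotoxic solvent plus surfactant, grown in loam soil–sand pots. Pigweed was sown in the same blend and given a preemergence directed soil spray.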

[4] = tested on: barnyardgrass (Echinochloa crus-galli); assay: Test A postemergence, barnyardgrass; settings: Postemergence, 0 to 100 scale (0 no effect, 100 complete control); for Barnyardgrass plant response rating: 500 g ai/ha, visual injury vs untreated controls after approx. 10 days
Summary of the method: as §2

[5] = tested on: Ryegrass, Italian (Italian ryegrass, Lolium multiflorum); assay: Test A preemergence, Ryegrass, Italian; settings: Preemergence; for Ryegrass, Italian plant response rating: visual injury on 0 to 100 scale (0 no effect, 100 complete control), approximately 10 days; for Plant response rating, Ryegrass, Italian: 0 to 100 scale (0 no effect, 100 complete control)
Summary of the method: as §1

kochia (Bassia scoparia) [6] = assay: Test A preemergence, kochia; settings: Preemergence; for Kochia plant response rating: visual injury on 0 to 100 scale (0 no effect, 100 complete control), approximately 10 days; for Plant response rating, Kochia: 0 to 100 scale (0 no effect, 100 complete control)
Summary of the method: as §1

[7] = tested on: blackgrass (Alopecurus myosuroides); assay: Test A postemergence, blackgrass; settings: Postemergence, 0 to 100 scale (0 no effect, 100 complete control); for Blackgrass plant response rating: 500 g ai/ha, visual injury vs untreated controls after approx. 10 days
Summary of the method: as §1

[8] = tested on: Ryegrass, Italian (Italian ryegrass, Lolium multiflorum); assay: Test A postemergence, Ryegrass, Italian; settings: Postemergence, 0 to 100 scale (0 no effect, 100 complete control); for Ryegrass, Italian plant response rating: 500 g ai/ha, visual injury vs untreated controls after approx. 10 days
Summary of the method: as §1

[9] = tested on: barnyardgrass (Echinochloa crus-galli); assay: Test A preemergence, barnyardgrass; settings: Preemergence; for Barnyardgrass plant response rating: visual injury on 0 to 100 scale (0 no effect, 100 complete control), approximately 10 days; for Plant response rating, Barnyardgrass: 0 to 100 scale (0 no effect, 100 complete control)
Summary of the method: as §1

[10] = tested on: ragweed (common ragweed, Ambrosia artemisiifolia); assay: Test A postemergence, ragweed; settings: Postemergence, 0 to 100 scale (0 no effect, 100 complete control); for Ragweed plant response rating: 500 g ai/ha, visual injury vs untreated controls after approx. 10 days
Summary of the method: as §1

[11] = tested on: wheat (Triticum aestivum); assay: Test A postemergence, wheat; settings: Postemergence, 0 to 100 scale (0 no effect, 100 complete control); for Wheat plant response rating: 500 g ai/ha, visual injury vs untreated controls after approx. 10 days
Summary of the method: as §2

corn (Zea mays) = assay: Test A postemergence, corn; settings: Postemergence, 0 to 100 scale (0 no effect, 100 complete control); for Corn plant response rating: 500 g ai/ha, visual injury vs untreated controls after approx. 10 days
Summary of the method: as §1

kochia (Bassia scoparia) [12] = assay: Test A postemergence, kochia; settings: Postemergence, 0 to 100 scale (0 no effect, 100 complete control); for Kochia plant response rating: 500 g ai/ha, visual injury vs untreated controls after approx. 10 days
Summary of the method: as §1

[13] = tested on: Foxtail, Giant (giant foxtail, Setaria faberi); assay: Test A postemergence, Foxtail, Giant; settings: Postemergence, 0 to 100 scale (0 no effect, 100 complete control); for Foxtail, Giant plant response rating: 500 g ai/ha, visual injury vs untreated controls after approx. 10 days
Summary of the method: as §1

[14] = tested on: galium (catchweed bedstraw, Galium aparine); assay: Test A postemergence, galium; settings: Postemergence, 0 to 100 scale (0 no effect, 100 complete control); for Galium plant response rating: 500 g ai/ha, visual injury vs untreated controls after approx. 10 days
Summary of the method: as §2

[15] = tested on: Foxtail, Giant (giant foxtail, Setaria faberi); assay: Test A preemergence, Foxtail, Giant; settings: Preemergence; for Foxtail, Giant plant response rating: visual injury on 0 to 100 scale (0 no effect, 100 complete control), approximately 10 days; for Plant response rating, Foxtail, Giant: 0 to 100 scale (0 no effect, 100 complete control)
Summary of the method: as §1

[16] = 125 g ai/ha, visual injury approx. 10 days
[17] = 1000 g ai/ha, visual injury, approx. 10 days
[18] = 125 g ai/ha, visual injury, approx. 10 days

Compound	Ragweed plant response rating ([1]; 125 g ai/ha)	Plant response rating, Ragweed ([1]; 500 g ai/ha)	Plant response rating, Pigweed [2, 16]	Pigweed plant response rating [2]	Pigweed plant response rating ([3]; 125 g ai/ha)	Plant response rating, Pigweed ([3]; 500 g ai/ha)	Plant response rating, Barnyardgrass [4, 16]	Barnyardgrass plant response rating [4]	Plant response rating, Ryegrass, Italian ([5]; 500 g ai/ha)	Plant response rating, Kochia (kochia (Bassia scoparia) [6]; 500 g ai/ha)	Blackgrass plant response rating [7]	Ryegrass, Italian plant response rating [8]	Plant response rating, Barnyardgrass ([9]; 500 g ai/ha)	Ragweed plant response rating [10]	Wheat plant response rating [11]	Corn plant response rating (corn (Zea mays))	Kochia plant response rating (kochia (Bassia scoparia) [12])	Foxtail, Giant plant response rating [13]	Galium plant response rating [14]	Plant response rating, Foxtail, Giant ([15]; 500 g ai/ha)	other results
COCC1(COC)CC(c2cc(NS(=O)(=O)C(F)(F)F)c(C)cc2C)=NO1 [Compound 104]	30	60	40	80	70	90	80	90	100	50	20	40	100	90	60	80	40	70	90	100	Ryegrass, Italian plant response rating ([5]; 125 g ai/ha): 50; Kochia plant response rating (kochia (Bassia scoparia) [6]; 125 g ai/ha): 0; Plant response rating, Blackgrass [7, 16]: 0; Plant response rating, Ryegrass, Italian [8, 16]: 10; Barnyardgrass plant response rating ([9]; 125 g ai/ha): 90; Plant response rating, Ragweed [10, 16]: 70; Plant response rating, Wheat [11, 16]: 20; Plant response rating, Corn (corn (Zea mays); [16]): 30; Plant response rating, Kochia (kochia (Bassia scoparia) [12]; [16]): 30; Plant response rating, Foxtail, Giant [13, 16]: 20; Plant response rating, Galium [14, 16]: 90; Foxtail, Giant plant response rating ([15]; 125 g ai/ha): 90
COc1cnn(C)c(=O)c1-c1cc(NS(=O)(=O)C(F)(F)F)c(C)cc1C [Compound 65]	0	0	0	0	0	30	0	70	60	60	0	0	90	0	50	0	0	40	30	100	Ryegrass, Italian plant response rating ([5]; 125 g ai/ha): 30; Kochia plant response rating (kochia (Bassia scoparia) [6]; 125 g ai/ha): 0; Plant response rating, Blackgrass [7, 16]: 0; Plant response rating, Ryegrass, Italian [8, 16]: 0; Barnyardgrass plant response rating ([9]; 125 g ai/ha): 0; Plant response rating, Ragweed [10, 16]: 0; Plant response rating, Wheat [11, 16]: 0; Plant response rating, Corn (corn (Zea mays); [16]): 0; Plant response rating, Kochia (kochia (Bassia scoparia) [12]; [16]): 0; Plant response rating, Foxtail, Giant [13, 16]: 0; Plant response rating, Galium [14, 16]: 0; Foxtail, Giant plant response rating ([15]; 125 g ai/ha): 80
Cc1cc(C)c(C(=O)N2CCC(C#N)CC2)cc1NS(=O)(=O)C(F)(F)F [Compound 11]																					Plant response rating, Ragweed ([1]; 1000 g ai/ha): 80; Plant response rating, Pigweed [2, 17]: 100; Plant response rating, Pigweed ([3]; 1000 g ai/ha): 100; Plant response rating, Barnyardgrass [4, 17]: 90; Plant response rating, Ryegrass, Italian ([5]; 1000 g ai/ha): 0; Plant response rating, Kochia (kochia (Bassia scoparia) [6]; 1000 g ai/ha): 90; Plant response rating, Blackgrass [7, 17]: 50; Plant response rating, Ryegrass, Italian [8, 17]: 70; Plant response rating, Barnyardgrass ([9]; 1000 g ai/ha): 100; Plant response rating, Ragweed [10, 17]: 80; Plant response rating, Wheat [11, 17]: 80; Plant response rating, Corn (corn (Zea mays); [17]): 60; Plant response rating, Kochia (kochia (Bassia scoparia) [12]; [17]): 60; Plant response rating, Foxtail, Giant [13, 17]: 90; Plant response rating, Galium [14, 17]: 90; Plant response rating, Foxtail, Giant ([15]; 1000 g ai/ha): 100
Cc1cc(Cl)c(N(S(=O)(=O)C(F)(F)F)S(=O)(=O)C(F)(F)F)cc1C1=NOC2(CCCCC2)C1 [Compound 217]		90		80		100		30	100	90	20	0	100	70	30	20	70	0	90	100	Plant response rating, Ragweed [1, 18]: 60; Plant response rating, Pigweed ([2]; 125 g ai/ha): 40; Plant response rating, Pigweed [3, 18]: 70; Plant response rating, Barnyardgrass ([4]; 125 g ai/ha): 0; Plant response rating, Ryegrass, Italian [5, 18]: 80; Plant response rating, Kochia (kochia (Bassia scoparia) [6]; [18]): 70; Plant response rating, Blackgrass ([7]; 125 g ai/ha): 0; Plant response rating, Ryegrass, Italian ([8]; 125 g ai/ha): 0; Plant response rating, Barnyardgrass [9, 18]: 90; Plant response rating, Ragweed ([10]; 125 g ai/ha): 60; Plant response rating, Wheat ([11]; 125 g ai/ha): 0; Plant response rating, Corn (corn (Zea mays); 125 g ai/ha): 0; Plant response rating, Kochia (kochia (Bassia scoparia) [12]; 125 g ai/ha): 50; Plant response rating, Foxtail, Giant ([13]; 125 g ai/ha): 0; Plant response rating, Galium ([14]; 125 g ai/ha): 80; Plant response rating, Foxtail, Giant [15, 18]: 90
